Results reported in ChEMBL document CHEMBL3885881, “DrugMatrix”.

Species on record: Rattus norvegicus
Test: DrugMatrix - Regimen: Daily Repeat
Format: toxicity, organism-based, Sprague-Dawley
Parameters: regimen Daily Repeat, gender Male, age 6-8 weeks
Details: in vivo, po, route oral GAVAGE, vehicle 100 % WATER; for ABSOLUTE BASOPHIL / ABSOLUTE EOSINOPHIL / ABSOLUTE LYMPHOCYTE / ABSOLUTE MONOCYTE / ABSOLUTE SEGMENTED NEUTROPHIL / BASOPHIL / EOSINOPHIL / ERYTHROCYTE COUNT / HEMATOCRIT / HEMOGLOBIN / LEUKOCYTE COUNT / LYMPHOCYTE / MEAN CORPUSCULAR HEMOGLOBIN / MEAN CORPUSCULAR HEMOGLOBIN CONCENTRATION / MEAN CORPUSCULAR VOLUME / MONOCYTE / NEUTROPHIL / NUCLEATED RED BLOOD CELLS / PLATELET COUNT: tissue Blood; for ALANINE AMINOTRANSFERASE / ALBUMIN / ALKALINE PHOSPHATASE / ASPARTATE AMINOTRANSFERASE / BLOOD UREA NITROGEN / CARBON DIOXIDE / CHLORIDE / CHOLESTEROL / CREATINE PHOSPHOKINASE / CREATININE / GLUCOSE / LACTATE DEHYDROGENASE / LIPASE / PHOSPHORUS / POTASSIUM / SODIUM / TOTAL BILIRUBIN / TOTAL PROTEIN / URIC ACID: tissue Plasma
[1] = 120 mg/kg, 120 h, dose level Low, time 5 day
[2] = 1200 mg/kg, 72 h, dose level High, time 3 day
[3] = 1200 mg/kg, 120 h, dose level High, time 5 day

Structure (SMILES): Cc1onc(-c2ccccc2Cl)c1C(=O)N[C@@H]1C(=O)N2[C@@H]1SC(C)(C)[C@@H]2C(=O)O [CLOXACILLIN]
- ABSOLUTE BASOPHIL [1]: 0 CELLS/uL
- ABSOLUTE EOSINOPHIL [1]: 0 CELLS/uL
- ABSOLUTE LYMPHOCYTE [1]: 14591.67 CELLS/uL
- ABSOLUTE MONOCYTE [1]: 338 CELLS/uL
- ABSOLUTE SEGMENTED NEUTROPHIL [1]: 1970.33 CELLS/uL
- BASOPHIL [1]: 0%
- EOSINOPHIL [1]: 0%
- ERYTHROCYTE COUNT [1]: 5.42 x10E6/uL
- HEMATOCRIT [1]: 34.13%
- HEMOGLOBIN [1]: 13.57 G/DL
- LEUKOCYTE COUNT [1]: 16.9 x10E3/uL
- LYMPHOCYTE [1]: 86.33%
- MEAN CORPUSCULAR HEMOGLOBIN [1]: 25.07 pg
- MEAN CORPUSCULAR HEMOGLOBIN CONCENTRATION [1]: 39.73 G/DL
- MEAN CORPUSCULAR VOLUME [1]: 62.97 fL
- MONOCYTE [1]: 2%
- NEUTROPHIL [1]: 11.67%
- NUCLEATED RED BLOOD CELLS [1]: 0 /100WBC
- PLATELET COUNT [1]: 1237.33 x10E3/uL
- ALANINE AMINOTRANSFERASE [1]: 51.33 u/L
- ALBUMIN [1]: 4.13 G/DL
- ALKALINE PHOSPHATASE [1]: 349.67 u/L
- ASPARTATE AMINOTRANSFERASE [1]: 77.33 u/L
- BLOOD UREA NITROGEN [1]: 15.67 mg/dL
- CARBON DIOXIDE [1]: 27 mmol/L
- CHLORIDE [1]: 101.33 MEQ/L
- CHOLESTEROL [1]: 69.67 mg/dL
- CREATINE PHOSPHOKINASE [1]: 381.33 u/L
- CREATININE [1]: 0.14 mg/dL
- GLUCOSE [1]: 149.67 mg/dL
- LACTATE DEHYDROGENASE [1]: 190 u/L
- LIPASE [1]: 8.33 u/L
- PHOSPHORUS [1]: 11.87 mg/dL
- POTASSIUM [1]: 6.69 MEQ/L
- SODIUM [1]: 143.53 MEQ/L
- TOTAL BILIRUBIN [1]: 0.13 mg/dL
- TOTAL PROTEIN [1]: 5.77 G/DL
- URIC ACID [1]: 1.5 mg/dL
- ABSOLUTE BASOPHIL [2]: 0 CELLS/uL
- ABSOLUTE EOSINOPHIL [2]: 0 CELLS/uL
- ABSOLUTE LYMPHOCYTE [2]: 9313 CELLS/uL
- ABSOLUTE MONOCYTE [2]: 140.33 CELLS/uL
- ABSOLUTE SEGMENTED NEUTROPHIL [2]: 1013.33 CELLS/uL
- BASOPHIL [2]: 0%
- EOSINOPHIL [2]: 0%
- ERYTHROCYTE COUNT [2]: 4.48 x10E6/uL
- HEMATOCRIT [2]: 28.27%
- HEMOGLOBIN [2]: 11.27 G/DL
- LEUKOCYTE COUNT [2]: 10.47 x10E3/uL
- LYMPHOCYTE [2]: 90%
- MEAN CORPUSCULAR HEMOGLOBIN [2]: 25.37 pg
- MEAN CORPUSCULAR HEMOGLOBIN CONCENTRATION [2]: 39.93 G/DL
- MEAN CORPUSCULAR VOLUME [2]: 63.4 fL
- MONOCYTE [2]: 1%
- NEUTROPHIL [2]: 9%
- NUCLEATED RED BLOOD CELLS [2]: 0 /100WBC
- PLATELET COUNT [2]: 825.33 x10E3/uL
- ALANINE AMINOTRANSFERASE [2]: 72 u/L
- ALBUMIN [2]: 4.03 G/DL
- ALKALINE PHOSPHATASE [2]: 414 u/L
- ASPARTATE AMINOTRANSFERASE [2]: 89.67 u/L
- BLOOD UREA NITROGEN [2]: 15 mg/dL
- CARBON DIOXIDE [2]: 22.33 mmol/L
- CHLORIDE [2]: 102.67 MEQ/L
- CHOLESTEROL [2]: 86.33 mg/dL
- CREATINE PHOSPHOKINASE [2]: 306 u/L
- CREATININE [2]: 0.16 mg/dL
- GLUCOSE [2]: 144.67 mg/dL
- LACTATE DEHYDROGENASE [2]: 170 u/L
- LIPASE [2]: 10.67 u/L
- PHOSPHORUS [2]: 12.23 mg/dL
- POTASSIUM [2]: 6.82 MEQ/L
- SODIUM [2]: 143.7 MEQ/L
- TOTAL BILIRUBIN [2]: 0.13 mg/dL
- TOTAL PROTEIN [2]: 5.7 G/DL
- URIC ACID [2]: 1.7 mg/dL
- ABSOLUTE BASOPHIL [3]: 0 CELLS/uL
- ABSOLUTE EOSINOPHIL [3]: 148.67 CELLS/uL
- ABSOLUTE LYMPHOCYTE [3]: 18945 CELLS/uL
- ABSOLUTE MONOCYTE [3]: 0 CELLS/uL
- ABSOLUTE SEGMENTED NEUTROPHIL [3]: 1139.67 CELLS/uL
- BASOPHIL [3]: 0%
- EOSINOPHIL [3]: 0.67%
- ERYTHROCYTE COUNT [3]: 5.75 x10E6/uL
- HEMATOCRIT [3]: 35.27%
- HEMOGLOBIN [3]: 13.97 G/DL
- LEUKOCYTE COUNT [3]: 20.23 x10E3/uL
- LYMPHOCYTE [3]: 93.67%
- MEAN CORPUSCULAR HEMOGLOBIN [3]: 24.3 pg
- MEAN CORPUSCULAR HEMOGLOBIN CONCENTRATION [3]: 39.6 G/DL
- MEAN CORPUSCULAR VOLUME [3]: 61.33 fL
- MONOCYTE [3]: 0%
- NEUTROPHIL [3]: 5.67%
- NUCLEATED RED BLOOD CELLS [3]: 0 /100WBC
- PLATELET COUNT [3]: 1362 x10E3/uL
- ALANINE AMINOTRANSFERASE [3]: 67 u/L
- ALBUMIN [3]: 4.2 G/DL
- ALKALINE PHOSPHATASE [3]: 356 u/L
- ASPARTATE AMINOTRANSFERASE [3]: 78 u/L
- BLOOD UREA NITROGEN [3]: 17.67 mg/dL
- CARBON DIOXIDE [3]: 26 mmol/L
- CHLORIDE [3]: 102.67 MEQ/L
- CHOLESTEROL [3]: 75.33 mg/dL
- CREATINE PHOSPHOKINASE [3]: 220.67 u/L
- CREATININE [3]: 0.15 mg/dL
- GLUCOSE [3]: 159.67 mg/dL
- LACTATE DEHYDROGENASE [3]: 104 u/L
- LIPASE [3]: 9.33 u/L
- PHOSPHORUS [3]: 11.63 mg/dL
- POTASSIUM [3]: 6.63 MEQ/L
- SODIUM [3]: 144.07 MEQ/L
- TOTAL BILIRUBIN [3]: 0.13 mg/dL
- TOTAL PROTEIN [3]: 6.17 G/DL
- URIC ACID [3]: 2 mg/dL
